Source: US9211310B2, “Use of a Chinese medicine composition in preparing medicaments for treating secondary prevention of myocardial infarction” (TASLY PHARMACEUTICAL GROUP CO., LTD, priority 2010, dated 2015)

System: patients after acute myocardial infarction
Test: Life quality, Seattle Angina Questionnaire (SAQ), same clinical trial
Assay type: in vivo, human
Conditions: PP; 12 months after treatment
From the text: 3508 patients who were in accordance with the diagnostic standards of AMI for 28 days to 2 years and differentiated as Qi deficiency and blood stagnation syndrome by TCM were studied. 0.5 g Chinese medicine composition prepared by the method of EXAMPLE 1 (Coded as QSYQ) was administrated half an hour after meal, 3 times per day.
There were 19 questions in the Seattle angina questionnaire (SAQ), including 5 parts: physical limitation (PL), anginal stability (AS), anginal frequency (AF), treatment satisfaction (TS) and disease perception (DP). After being given necessary explanation by doctors, the questions were answered independently by patients.
They included the overall survival time, angina pectoris score, TCM symptom score and life quality score, where angina pectoris score, TCM symptom score and life quality score were evaluated at randomization, in 1st, 3rd, 6th, 9th, 12th month after treatment and 18th month after follow-up.
All evaluation results of SAQ were described during the period of observation, and Wilcoxon rank sum test was used for inter-group comparison.
The evaluation results in the SAQ were depicted in different observations, and inter-group comparison was tested by Wilcoxon Rank-sum test.

CC(=O)Oc1ccccc1C(=O)O [Control group, aspirine]
9th question: Severe, patients (%): (0.21%) | 9th question: Uneffective, patients (%): (24.25%) | 10th question: Dissatisfied, patients (%): (18.68%) | 10th question: Highly satisfied, patients (%): (8.26%) | 10th question: Mostly dissatisfied, patients (%): (18.61%) | 10th question: Mostly satisfied, patients (%): (31.84%) | 10th question: Partly dissatisfied, patients (%): (22.60%) | 11th question: Continuously worried, patients (%): (1.96%) | 11th question: No worried, patients (%): (7.42%) | 11th question: Occasionally worried, patients (%): (40.59%) | 11th question: Often worried, patients (%): (7.98%) | 11th question: Seldom worried, patients (%): (42.06%) | SAQ 4th question, 1-2 times per week: % of patients: (10.29%) | SAQ 4th question, 1-2 times per week: number of patients: 147 | SAQ 4th question, 1-3 times per week: % of patients: (3.36%) | SAQ 4th question, 1-3 times per week: number of patients: 48 | SAQ 4th question, <1 time per week: % of patients: (16.38%) | SAQ 4th question, <1 time per week: number of patients: 234 | SAQ 4th question, Not used: % of patients: (67.74%) | SAQ 4th question, Not used: number of patients: 968 | SAQ 4th question, ≧3 times per week: % of patients: (2.24%) | SAQ 4th question, ≧3 times per week: number of patients: 32 | SAQ 4th question, ≧4 times per day: % of patients: (0.00%) | SAQ 4th question, ≧4 times per day: number of patients: 0 | SAQ 5th question, 1-2 times per week: % of patients: (34.01%) | SAQ 5th question, 1-2 times per week: number of patients: 486 | SAQ 5th question, 1-3 times per day: % of patients: (4.13%) | SAQ 5th question, 1-3 times per day: number of patients: 59 | SAQ 5th question, <1 time per week: % of patients: (30.58%) | SAQ 5th question, <1 time per week: number of patients: 437 | SAQ 5th question, No onset: % of patients: (5.67%) | SAQ 5th question, No onset: number of patients: 81 | SAQ 5th question, ≧3 times per week: % of patients: (25.33%) | SAQ 5th question, ≧3 times per week: number of patients: 362 | SAQ 5th question, ≧4 times per day: % of patients: (0.28%) | SAQ 5th question, ≧4 times per day: number of patients: 4 | SAQ 6th question, Dissatisfied: % of patients: (0.07%) | SAQ 6th question, Dissatisfied: number of patients: 1 | SAQ 6th question, Highly satisfied: % of patients: (27.78%) | SAQ 6th question, Highly satisfied: number of patients: 397 | SAQ 6th question, Mostly dissatisfied: % of patients: (0.84%) | SAQ 6th question, Mostly dissatisfied: number of patients: 12 | SAQ 6th question, Mostly satisfied: % of patients: (61.72%) | SAQ 6th question, Mostly satisfied: number of patients: 882 | SAQ 6th question, Partly satisfied: % of patients: (9.59%) | SAQ 6th question, Partly satisfied: number of patients: 137 | SAQ 7th question, Dissatisfied: % of patients: (0.07%) | SAQ 7th question, Dissatisfied: number of patients: 1 | SAQ 7th question, Highly satisfied: % of patients: (31.25%) | SAQ 7th question, Highly satisfied: number of patients: 446 | SAQ 7th question, Mostly dissatisfied: % of patients: (0.28%) | SAQ 7th question, Mostly dissatisfied: number of patients: 4 | SAQ 7th question, Mostly satisfied: % of patients: (60.34%) | SAQ 7th question, Mostly satisfied: number of patients: 861 | SAQ 7th question, Partly satisfied: % of patients: (8.06%) | SAQ 7th question, Partly satisfied: number of patients: 115 | SAQ Question 1-1 Mildly limited, number of patients: 7 | SAQ Question 1-1 Mildly limited, percent of patients: (0.49%) | SAQ Question 1-1 Moderately limited, number of patients: 1 | SAQ Question 1-1 Moderately limited, percent of patients: (0.07%) | SAQ Question 1-1 Not limited, number of patients: 1371 | SAQ Question 1-1 Not limited, percent of patients: (96.28%) | SAQ Question 1-1 Other reasons, number of patients: 4 | SAQ Question 1-1 Other reasons, percent of patients: (0.28%) | SAQ Question 1-1 Severely limited, number of patients: 0 | SAQ Question 1-1 Severely limited, percent of patients: (0.00%) | SAQ Question 1-1 Slightly limited, number of patients: 41 | SAQ Question 1-1 Slightly limited, percent of patients: (2.88%) | SAQ Question 1-2 Mildly limited, number of patients: 8 | SAQ Question 1-2 Mildly limited, percent of patients: (0.56%) | SAQ Question 1-2 Moderately limited, number of patients: 1 | SAQ Question 1-2 Moderately limited, percent of patients: (0.07%) | SAQ Question 1-2 Not limited, number of patients: 1365 | SAQ Question 1-2 Not limited, percent of patients: (95.79%) | SAQ Question 1-2 Other reasons, number of patients: 6 | SAQ Question 1-2 Other reasons, percent of patients: (0.42%) | SAQ Question 1-2 Severely limited, number of patients: 0
